Laboratory results as given in patent US10485803B2, “Pyrimidine compounds as JAK kinase inhibitors” (THERAVANCE BIOPHARMA R&D IP, LLC, priority 2016, dated 2019).

How the values were obtained:
[1] = target: JAK1 (Homo sapiens (Human), UniProt P23458); assay: LanthaScreen JAK biochemical assay, JAK1
Method: (§1) A panel of four LanthaScreen JAK biochemical assays (JAK1, 2, 3 and Tyk2) were carried in a common kinase reaction buffer (50 mM HEPES, pH 7.5, 0.01% Brij-35, 10 mM MgCl2, and 1 mM EGTA). Recombinant GST-tagged JAK enzymes and a GFP-tagged STAT1 peptide substrate were obtained from Life Technologies.
(§2) Serially diluted compounds were pre-incubated with each of the four JAK enzymes and the substrate in white 384-well microplates (Corning) at ambient temperature for 1 h. ATP was subsequently added to initiate the kinase reactions in 10 μl total volume, with 1% DMSO. […] The plates were allowed to incubate at ambient temperature for 1 h before being read on the EnVision reader (Perkin Elmer).
(§3) For dose-response analysis, percent inhibition data were plotted vs. compound concentrations, and IC50 values were determined from a 4-parameter robust fit model with the Prism software (GraphPad Software). Results were expressed as pIC50 (negative logarithm of IC50) and subsequently converted to pKi (negative logarithm of dissociation constant, Ki) using the Cheng-Prusoff equation.

[2] = tested on: IL-13 induced STAT6 phosphorylation in HT-29 human colorectal adenocarcinoma cells; assay: Cellular JAK potency assay: inhibition of IL-13; type: cell-based; settings: HT-29 cells
Method: The potency of test compounds for inhibition of the JAK-dependent cytokine interleuken-13 (IL-13) was assessed by measuring IL-13 (IL-13, R&D Systems) induced STAT6 phosphorylation in HT-29 human colorectal adenocarcinoma cells (ATCC).
The anti-STAT6 antibody (Cell Signaling Technologies) was conjugated to AlphaScreen acceptor beads (Perkin Elmer), while the anti-pSTAT6 (pTyr641) antibody (Cell Signaling Technologies) was biotinylated using EZ-Link Sulfo-NHS-Biotin (Thermo Scientific).
HT-29 cells were grown at 37° C. in a 5% CO2 humidified incubator in McCoy's 5a Modified medium (ATCC) supplemented with 10% FBS (Hyclone), 100 U/mL penicillin, 100 μg/mL streptomycin (Life Technologies), and 2 mM GlutaMAX (Life Technologies). On day 1 of the assay, cells were seeded at a 7,500 cells/well density in white poly-D-lysine-coated 384-well plates (Corning) with 25 μL medium, and were allowed to adhere overnight in the incubator. On day 2 of the assay, the medium was removed and replaced with 12 μL of assay buffer (Hank's Balanced Salt Solution/HBSS, 25 mM HEPES, and 1 mg/ml bovine serum albumin/BSA) containing dose-responses of test compounds. Compounds were serially diluted in DMSO and then diluted another 1000-fold in media to bring the final DMSO concentration to 0.1%. Cells were incubated with test compounds at 37° C. for 1 h, and followed by the addition of 12 μl of pre-warmed IL-13 (12 ng/ml in assay buffer) for stimulation. After incubating at 37° C. for 30 min, the assay buffer (containing compound and IL-13) was removed, and 10 μl of cell lysis buffer (25 mM HEPES, 0.1% SDS, 1% NP-40, 5 mM MgCl2, 1.3 mM EDTA, 1 mM EGTA, and supplement with Complete Ultra mini protease inhibitors and PhosSTOP from Roche Diagnostics). The plates were shaken at ambient temperature for 30 min before the addition of detection reagents. A mixture of biotin-anti-pSTAT6 and anti-STAT6 conjugated acceptor beads was added first and incubated at ambient temperature for 2 h, followed by the addition of streptavidin conjugated donor beads (Perkin Elmer). After a minimum of 2 h incubation, the assay plates were read on the EnVision plate reader.
Results were expressed as the negative logarithm of the IC50 value, pIC50.

[3] = target: JAK2 (Homo sapiens (Human), UniProt O60674); assay: LanthaScreen JAK biochemical assay, JAK2
JAK2, sequence (O60674 whole entry): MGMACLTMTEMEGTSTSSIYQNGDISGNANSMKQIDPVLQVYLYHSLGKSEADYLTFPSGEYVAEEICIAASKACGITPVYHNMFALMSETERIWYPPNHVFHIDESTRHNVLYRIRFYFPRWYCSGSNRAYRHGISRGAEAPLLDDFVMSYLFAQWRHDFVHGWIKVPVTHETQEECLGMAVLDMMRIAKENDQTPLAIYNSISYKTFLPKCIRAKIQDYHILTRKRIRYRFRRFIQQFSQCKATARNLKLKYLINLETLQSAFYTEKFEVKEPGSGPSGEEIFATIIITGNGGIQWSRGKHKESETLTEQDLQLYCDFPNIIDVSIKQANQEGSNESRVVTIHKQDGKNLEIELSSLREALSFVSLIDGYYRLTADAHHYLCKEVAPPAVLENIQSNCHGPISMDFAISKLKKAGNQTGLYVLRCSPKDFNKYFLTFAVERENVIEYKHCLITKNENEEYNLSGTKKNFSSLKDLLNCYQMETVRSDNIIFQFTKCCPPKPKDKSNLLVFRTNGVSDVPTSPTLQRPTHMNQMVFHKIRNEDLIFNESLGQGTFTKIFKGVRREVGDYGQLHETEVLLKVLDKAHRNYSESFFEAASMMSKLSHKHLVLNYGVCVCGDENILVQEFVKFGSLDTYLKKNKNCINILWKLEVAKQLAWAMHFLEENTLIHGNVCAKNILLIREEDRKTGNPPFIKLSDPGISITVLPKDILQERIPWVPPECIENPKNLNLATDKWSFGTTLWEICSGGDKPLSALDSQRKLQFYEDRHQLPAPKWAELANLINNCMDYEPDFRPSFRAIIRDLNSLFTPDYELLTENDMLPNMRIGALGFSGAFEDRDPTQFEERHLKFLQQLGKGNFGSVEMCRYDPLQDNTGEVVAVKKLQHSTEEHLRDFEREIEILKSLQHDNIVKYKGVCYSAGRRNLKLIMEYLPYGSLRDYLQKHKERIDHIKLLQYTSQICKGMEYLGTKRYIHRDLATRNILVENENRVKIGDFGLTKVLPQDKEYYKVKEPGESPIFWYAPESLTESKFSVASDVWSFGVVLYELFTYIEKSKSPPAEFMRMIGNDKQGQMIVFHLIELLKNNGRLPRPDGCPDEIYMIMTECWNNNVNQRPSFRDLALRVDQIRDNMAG
Method: as §1, §2, §3

[4] = Determination of absorption in cannulated rats; type: in vivo, Sprague Dawley rats; settings: rat, oral vs IV dose, portal vein
Method: Oral bioavailability (F %), fraction absorbed (Fa%) and fraction escaping hepatic clearance (Fh%) were determined in Sprague Dawley rats from the following two studies:
(1) Pharmacokinetics in rats following an IV dose of test compound: Following IV dosing, plasma samples were typically collected from 0-6 hr. Drug levels were determined using an LC-MS-MS method. The resulting drug levels were used to compute the IV pharmacokinetic parameters: AUC IV and Dose IV.
(2) Rats that have been cannulated in their portal vein (PV) and also in their jugular vein (JV) were dosed orally with test compound. Following oral dosing, plasma samples were typically collected from 0-6 hr from both the portal vein and the jugular vein. Drug levels were determined using an LC-MS-MS method. The resulting drug levels were used to compute the following pharmacokinetic parameters: AUC PO PV, AUC PO JV, and Dose PO.
Using data derived from the above studies, the oral bioavailability F %, and the quantities Fa% and Fh% were calculated from the following formulas: F%=(AUC PO JV/AUC IV)*(Dose IV/Dose PO)*100 Fa%=(AUC PO PV/AUC IV)*(Dose IV/Dose PO)*100 Fh%=AUC PO JV/AUC PO PV • where: • AUC PO JV=Area under the curve following oral dose and plasma collected from the jugular vein • AUC PO PV=Area under the curve following oral dose and plasma collected from the portal vein • AUC IV=Area under the curve following an intravenous dose • Dose IV=Intravenous Dose in mg/kg • Dose PO=Oral Dose in mg/kg

[5] = Dynamic moisture sorption assessment; type: physicochemical; settings: for hygroscopicity: 5% to 90% RH, two cycles of sorption and desorption; for weight gain in the humidity range of 5% to 90% relative humidity: 25° C. / room temperature
Method: Dynamic moisture sorption (DMS) measurement was performed using a VTI atmospheric microbalance, SGA-100 system (VTI Corp., Hialeah, Fla. 33016). A weighed sample was used and the humidity was lowest possible value (close to 0% RH) at the start of the analysis. The DMS analysis consisted of an initial drying step (0% RH) for 120 minutes, followed by two cycles of sorption and desorption with a scan rate of 5% RH/step over the humidity range of 5% RH to 90% RH. The DMS run was performed isothermally at 25° C.

JAK1, sequence (P23458 whole entry): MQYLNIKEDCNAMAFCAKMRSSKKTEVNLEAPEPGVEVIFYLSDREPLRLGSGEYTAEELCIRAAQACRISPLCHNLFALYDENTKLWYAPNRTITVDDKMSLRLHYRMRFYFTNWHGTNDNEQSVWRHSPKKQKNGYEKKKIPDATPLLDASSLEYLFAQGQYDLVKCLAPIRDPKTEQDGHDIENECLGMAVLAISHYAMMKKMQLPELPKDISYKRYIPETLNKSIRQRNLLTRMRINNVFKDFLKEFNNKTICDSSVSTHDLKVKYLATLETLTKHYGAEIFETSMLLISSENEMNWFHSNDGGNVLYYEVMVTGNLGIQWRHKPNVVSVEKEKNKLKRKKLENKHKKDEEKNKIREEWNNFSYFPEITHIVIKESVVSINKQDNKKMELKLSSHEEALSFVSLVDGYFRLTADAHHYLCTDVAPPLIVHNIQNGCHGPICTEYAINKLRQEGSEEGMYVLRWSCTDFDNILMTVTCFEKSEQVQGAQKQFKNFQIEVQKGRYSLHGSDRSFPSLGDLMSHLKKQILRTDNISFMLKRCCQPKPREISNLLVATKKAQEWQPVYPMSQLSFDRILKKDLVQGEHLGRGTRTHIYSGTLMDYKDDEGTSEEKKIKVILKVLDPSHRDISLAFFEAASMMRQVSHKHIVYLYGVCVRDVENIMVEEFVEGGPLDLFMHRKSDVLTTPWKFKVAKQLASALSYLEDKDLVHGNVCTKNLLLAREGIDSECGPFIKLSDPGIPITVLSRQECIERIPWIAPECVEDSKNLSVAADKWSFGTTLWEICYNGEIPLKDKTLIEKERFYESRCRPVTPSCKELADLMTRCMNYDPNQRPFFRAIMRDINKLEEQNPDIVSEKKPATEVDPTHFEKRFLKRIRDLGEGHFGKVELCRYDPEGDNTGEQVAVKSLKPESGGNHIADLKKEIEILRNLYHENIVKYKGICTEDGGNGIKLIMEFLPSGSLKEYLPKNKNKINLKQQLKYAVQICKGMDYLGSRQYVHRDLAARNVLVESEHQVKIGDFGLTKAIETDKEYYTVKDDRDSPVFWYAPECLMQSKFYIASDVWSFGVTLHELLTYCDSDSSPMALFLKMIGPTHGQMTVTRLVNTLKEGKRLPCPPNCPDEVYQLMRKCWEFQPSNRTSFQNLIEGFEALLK

COc1cc(Nc2cc(CO)[nH]n2)nc(N[C@@H]2C[C@H]3CCC[C@@H](C2)N3S(=O)(=O)N2CC(C#N)C2)n1 [Example 1-6, 1-(((1R,3s,5S)-3-((4-((5-(hydroxymethyl)-1H-pyrazol-3-yl)amino)-6-methoxypyrimidin-2-yl)amino)-9-azabicyclo[3.3.1]nonan-9-yl)sulfonyl)azetidine-3-carbonitrile]
JAK 1 (pKi) [1]: A (A represents a pKi value ≥10 (Ki≤0.1 nM))

COc1cc(Nc2cc(CO)[nH]n2)nc(N[C@@H]2C[C@H]3CCC[C@@H](C2)N3S(=O)(=O)c2ccccc2)n1 [Example 1-8, (3-((6-methoxy-2-(((1R,3s,5S)-9-(phenylsulfonyl)-9-azabicyclo[3.3.1]nonan-3-yl)amino)pyrimidin-4-yl)amino)-1H-pyrazol-5-yl)methanol]
HT-29 (pIC50) [2]: A (A represents a pIC50 value ≥7.5 (IC50≤32 nM))
JAK 1 (pKi) [1]: A (A represents a pKi value ≥10 (Ki≤0.1 nM))

COc1cc(Nc2cc(CO)[nH]n2)nc(N(C)[C@@H]2C[C@H]3CCC[C@@H](C2)N3S(=O)(=O)N2CCCC2)n1 [Example 1-13, (3-((6-methoxy-2-(methyl((1R,3s,5S)-9-(pyrrolidin-1-ylsulfonyl)-9-azabicyclo[3.3.1]nonan-3-yl)amino)pyrimidin-4-yl)amino)-1H-pyrazol-5-yl)methanol]
JAK 2 (pKi) [3]: A (A represents a pKi value ≥10 (Ki≤0.1 nM))
HT-29 (pIC50) [2]: A (A represents a pIC50 value ≥7.5 (IC50≤32 nM))
JAK 1 (pKi) [1]: A (A represents a pKi value ≥10 (Ki≤0.1 nM))

COc1cc(Nc2cc(CO)[nH]n2)nc(N(C)[C@@H]2C[C@H]3CCC[C@@H](C2)N3S(=O)(=O)C2CC2)n1 [Example 1-14, (3-((2-(((1R,3s,5S)-9-(cyclopropylsulfonyl)-9-azabicyclo[3.3.1]nonan-3-yl)(methyl)amino)-6-methoxypyrimidin-4-yl)amino)-1H-pyrazol-5-yl)methanol]
JAK 2 (pKi) [3]: A (A represents a pKi value ≥10 (Ki≤0.1 nM))
HT-29 (pIC50) [2]: A (A represents a pIC50 value ≥7.5 (IC50≤32 nM))

COc1cc(Nc2cc(CO)[nH]n2)nc(N(C)[C@@H]2C[C@H]3CCC[C@@H](C2)N3S(=O)(=O)c2cccnc2)n1 [Example 1-15, (3-((6-methoxy-2-(methyl((1R,3s,5S)-9-(pyridin-3-ylsulfonyl)-9-azabicyclo[3.3.1]nonan-3-yl)amino)pyrimidin-4-yl)amino)-1H-pyrazol-5-yl)methanol]
JAK 2 (pKi) [3]: A (A represents a pKi value ≥10 (Ki≤0.1 nM))

COc1cc(Nc2cc(CO)[nH]n2)nc(N(C)[C@@H]2C[C@H]3CCC[C@@H](C2)N3S(=O)(=O)N2CCC2)n1 [Example 1-17, (3-((2-(((1R,3s,5S)-9-(azetidin-1-ylsulfonyl)-9-azabicyclo[3.3.1]nonan-3-yl)(methyl)amino)-6-methoxypyrimidin-4-yl)amino)-1H-pyrazol-5-yl)methanol]
JAK 2 (pKi) [3]: A (A represents a pKi value ≥10 (Ki≤0.1 nM))
HT-29 (pIC50) [2]: A (A represents a pIC50 value ≥7.5 (IC50≤32 nM))

COc1cc(Nc2cc(CO)[nH]n2)nc(N(C)[C@@H]2C[C@H]3CCC[C@@H](C2)N3S(=O)(=O)c2cncc(F)c2)n1 [Example 1-19, (3-((2-(((1R,3s,5S)-9-((5-fluoropyridin-3-yl)sulfonyl)-9-azabicyclo[3.3.1]nonan-3-yl)(methyl)amino)-6-methoxypyrimidin-4-yl)amino)-1H-pyrazol-5-yl)methanol]
HT-29 (pIC50) [2]: A (A represents a pIC50 value ≥7.5 (IC50≤32 nM))

COc1cc(Nc2cc(CO)[nH]n2)nc(N(C)[C@@H]2C[C@H]3CCC[C@@H](C2)N3S(C)(=O)=O)n1 [Example 3, (3-((6-methoxy-2-(methyl((1R,3s,5S)-9-(methylsulfonyl)-9-azabicyclo[3.3.1]nonan-3-yl)amino)pyrimidin-4-yl)amino)-1H-pyrazol-5-yl)methanol]
absorption at the portal vein (Fa%) [4]: greater than 40%

COc1cc(Nc2cc(CO)[nH]n2)nc(N(C)[C@@H]2C[C@H]3CCC[C@@H](C2)N3C(=O)C(F)F)n1 [Example 9, 2,2-difluoro-1-((1R,3s,5S)-3-((4-((5-(hydroxymethyl)-1H-pyrazol-3-yl)amino)-6-methoxypyrimidin-2-yl)(methyl)amino)-9-azabicyclo[3.3.1]nonan-9-yl)ethan-1-one]
IC50 ([2]; Homo sapiens, read-out: HT-29 (pIC50) (converted)): 31.6 to 200 nM

COc1cc(Nc2cc(CO)[nH]n2)nc(N(C)[C@@H]2C[C@H]3CCC[C@@H](C2)N3S(=O)(=O)N2CC(C#N)C2)n1 [Form I, 1-(((1R,3s,5S)-3-((4-((5-(hydroxymethyl)-1H-pyrazol-3-yl)amino)-6-methoxypyrimidin-2-yl)(methyl)amino)-9-azabicyclo[3.3.1]nonan-9-yl)sulfonyl)azetidine-3-carbonitrile]
hygroscopicity [5]: non-hygroscopic
weight gain in the humidity range of 5% to 90% relative humidity [5]: less than 0.4%
weight gain in the humidity range of 5% to 90% relative humidity ([5]; listed as Crystalline 1-((1R,3s,5S)-3-((4-((5-(hydroxymethyl)-1H-pyrazol-3-yl)amino)-6-me)))): less than 0.4%

COc1cc(Nc2cc(CO)[nH]n2)nc(N(C)[C@@H]2C[C@H]3CCC[C@@H](C2)N3S(=O)(=O)N2CC(C#N)C2)n1 [Form II, 1-(((1R,3s,5S)-3-((4-((5-(hydroxymethyl)-1H-pyrazol-3-yl)amino)-6-methoxypyrimidin-2-yl)(methyl)amino)-9-azabicyclo[3.3.1]nonan-9-yl)sulfonyl)azetidine-3-carbonitrile]
hygroscopicity [5]: slightly hygroscopic
weight gain in the humidity range of 5% to 90% relative humidity [5]: about 1.2%
